# Assay results published in ChEMBL document CHEMBL1152408, “Characterization of a Dispiroketal Spirolide Subclass from Alexandrium ostenfeldii” (J Nat Prod, 2009).
# Assays:
# Format in all cases: organism-based
# Mus musculus [1] = assay: Toxicity in ip dosed mouse assessed as transient lethargy up to 2000 ug/kg; settings: in vivo, 2 mg/kg
# Mus musculus [2] = assay: Toxicity in ip dosed mouse assessed as transient hunching up to 2000 ug/kg; settings: in vivo, 2 mg/kg
# Mus musculus [3] = assay: Toxicity in ip dosed mouse; settings: in vivo
Structure (SMILES),Activity (Mus musculus [1]),Activity (Mus musculus [2]),LD50 (Mus musculus [3]) [µg/kg]
C=C1CCCC2=NC[C@H](C)[C@@H](C)C[C@@]23CCC([C@@H]2C=C(C)C(=O)O2)=C(C)[C@@H]3/C=C(\C)[C@@H](O)C[C@H]2O[C@@]3(C[C@H]2C)O[C@@H](CC[C@@]3(C)O)C1 [Spirolide H],Non-toxic,Non-toxic,–
C=C1CCCC2=NC[C@H](C)CC[C@@]23CCC([C@@H]2C=C(C)C(=O)O2)=C(C)[C@@H]3/C=C(\C)[C@@H](O)C[C@H]2O[C@]3(CC[C@@]4(O[C@@H](CC[C@@]4(C)O)C1)O3)C[C@H]2C [SPIROLIDE A],–,–,6.9
C=C1CCCC2=NC[C@H](C)[C@@H](C)C[C@@]23CCC([C@@H]2C=C(C)C(=O)O2)=C(C)[C@@H]3/C=C(\C)[C@@H](O)C[C@@H]2CC[C@@]3(CC[C@@]4(O[C@@H](CC[C@@]4(C)O)C1)O3)O2,–,–,6.9
C=C1CCCC2=NC[C@H](C)[C@@H](C)C[C@@]23CCC([C@@H]2C=C(C)C(=O)O2)=C(C)[C@@H]3/C=C(\C)CC[C@@H]2CC[C@]3(COC[C@]4(O[C@H]1CC[C@@]4(C)O)[C@@H]3O)O2,–,–,6.9
C=C1CCCC2=NC[C@H](C)[C@@H](C)C[C@@]23CCC([C@@H]2C=C(C)C(=O)O2)=C(C)[C@@H]3/C=C(\C)[C@@H](O)C[C@H]2O[C@]3(CC[C@@]4(O[C@@H](CC[C@@]4(C)O)C1)O3)C[C@H]2C [SPIROLIDE C],–,–,6.9
C=C1CCCC2=NC[C@H](C)CC[C@@]23CCC([C@@H]2CC(C)C(=O)O2)=C(C)[C@@H]3/C=C(\C)[C@@H](O)C[C@H]2O[C@]3(CC[C@@]4(O[C@@H](CC[C@@]4(C)O)C1)O3)C[C@H]2C (some centres not stated) [SPIROLIDE B],–,–,6.9
